{"source": "patent US6512166B1", "about": "“Combinations of fungal cell wall degrading enzyme and fungal cell membrane affecting compound” (priority 1991, dated 2003)", "key": {"[1]": {"experiment": "Solubility, guidance for forming solutions", "source_text": "Compositions for use in the systems herein are readily formulated by admixing the fungal cell wall degrading enzymes and the antifungal fungal cell membrane affecting compounds with non-toxic carriers appropriate for the particular use for a composition, e.g., agriculturally acceptable carriers for agricultural uses and pharmaceutically acceptable carriers for medicinal uses. They may be formulated as liquids (solutions or suspensions) or as solids. Since the fungal cell wall degrading enzymes need free water for activity, water must be present at the time of function. […] Water is a preferred vehicle where components are soluble in it. […] Organic solvents can also be used and may be required in some cases if a solution is desired. Guidance for forming solutions follows. […] Suspension can also be employed."}, "B. cinerea strain 12": {"system": "B. cinerea strain 12", "experiment": "Inhibition of spore germination, ELISA plate assay (Examples III-XVI, XVIII)", "format": "cell-based, Botrytis cinerea", "conditions": "Table 20; concentration of flusilazole for 50% inhibition, alone or with enzyme at its ED10 concentration", "protocol": "(§1) The concentration where fungal cell wall degrading enzyme individually provides a specified percentage fungal inhibition or where antifungal fungal cell membrane affecting compound individually provides a specific percentage fungal inhibition can be determined as follows: Assays are performed under sterile conditions. Equal volumes of spore suspensions, 3× potato dextrose broth, and the test solution or suspension in 5 mM Tris-HCl (pH 6.0) or 5 mM potassium phosphate buffer (pH 6.7) are mixed. The control is the same as the test solution except for the control the antifungal agent is omitted. The assay mixtures (total volume 45 or 30 μl) are incubated on flat-bottomed ELISA plates, each containing 96 wells, with 2,000 to 3,000 spores per well, at 25° C. After 22 to 30 hours, the plates are placed under an inverted microscope. The percentage of conidia germinating is determined as the percentage of the first 100 spores randomly found in a well. In addition, the lengths of 20 germ tubes are measured and averaged. All experiments are performed twice, with three replicates for each treatment. The inhibition values obtained in the two experiments are combined and averaged, and standard deviations are calculated from the 6 data points. The values obtained for the control are taken as 0% inhibition and all other values are divided by the values obtained for the control and multiplied by 100% to obtain percent inhibition. Determination of concentration corresponding to a particular percent inhibition is carried out by subjecting dose-response curves to regression analysis by using a binomial regression of the third order, with R^2 ranging between 0.95 and 0.99.\n(§2) Assays were carried out by the procedure described in the summary of the invention section. Dose response curves were obtained by probit analysis of data collected from two separate experiments with each experiment involving three treatment replicates.\nEach of 8 antifungal fungal cell membrane affecting compounds were used in combination with each of 8 or 6 fungal cell wall degrading enzymes to provide 50% inhibition (ED50) of B. cinerea strain 12 spore germination. Each fungal cell wall degrading enzyme was used at a concentration giving 10% inhibition of spore germination when used alone in combination with an amount of antifungal fungal cell membrane affecting compound so the combination gave 50% inhibition of spore germination.\n(§3) Dose response curves were determined for each antifungal fungal cell membrane affecting compound and for each fungal cell wall degrading enzyme singly. Then each fungal cell wall degrading enzyme at a concentration giving 10% inhibition when used alone was combined with increasing amounts of antifungal fungal cell membrane affecting compound. Then the concentration of antifungal fungal cell membrane affecting compound causing the ED50 for each combination was calculated by probit analysis of data collected from two experiments with three treatment replicates for each experiment. Assays for inhibition of spore germination were carried out as described in the summary of invention section above.\nThe relative level of synergism (RS below) for each combination was calculated by applying Limpel's formula: Ee=X+Y−(XY/100) as described in Richer, D. L, Pestic. Sci. 19, 309-315, 1987. In Limpel's formula, X and Y are the percentages of inhibition relative to each compound used alone and Ee is the expected effect for an additional (non-synergistic) effect. If the combination of the two agents produces an observed effect (Eo) greater than Ee, synergism exists, and as the difference between Eo and Ee increases, the level of synergism is greater. […]"}, "[2]": {"system": "Fusarium oxysporum strain FOP1", "experiment": "Inhibition of spore germination, ELISA plate assay (Examples V-XIV, XVII)", "format": "cell-based", "conditions": "Table 28; concentration of flusilazole for 50% inhibition, alone or with enzyme at its ED10 concentration", "protocol": "as §1, §2, §3\nThe relative level of synergism (RS below) for each combination was calculated by applying Limpel's formula: Ee=X+Y−(XY/100) as described in Richer, D. L, Pestic. Sci. 19, 309-315, 1987. In Limpel's formula, X and Y are the percentages of inhibition relative to each compound used alone and Ee is the expected effect for an additional (non-synergistic) effect. If the combination of the two agents produces an observed effect (Eo) greater than Ee, synergism exists, and as the difference between Eo and Ee increases, the level of synergism is greater. In this experiment, the X value (percentage inhibition by fungal cell wall degrading enzyme when used alone was chosen to be 10 (10% inhibition of spore germination when used alone) and the observed effect, Eo, was 50 (i.e., 50% inhibition of spore germination). The Y values were obtained from the determined concentrations of antifungal cell membrane affecting compound causing the ED50 for a combination and the dose response curves for the antifungal cell membrane affecting compound used alone—i.e., the Y value was the percent inhibition for the antifungal fungal cell membrane affecting compound when used alone for the concentration of antifungal fungal cell membrane affecting compound that was determined to cause the ED50 for the combination. Ee values were then calculated from Limpel's formula. […]"}, "Botrytis cinerea": {"system": "Botrytis cinerea", "experiment": "Inhibition of spore germination, Eppendorf tube assay (Examples I and II)", "format": "cell-based", "conditions": "for inhibition at 0.5 µg/mL: read-out: % inhibition; for % inhibition: enzyme 0 μg ml^−1 (fungicide alone); for % inhibition / Ee, expected effect from an additive response according to Limpel's formula, percent inhibition / Io, percent inhibition observed: flusilazole 5 ng ml^−1, miconazole 0.5 μg ml^−1; for ED50 of fungicide (dose effective for 50% inhibition): Table 9"}}, "note": "Read-outs that look alike come from different tables or passages of the source."}
{"smiles": "C[Si](Cn1cncn1)(c1ccc(F)cc1)c1ccc(F)cc1", "note": "[Flusilazole, flusilazole]", "values": [{"measurement": "solubility (solvent in which the substance dissolves)", "setting": "[1]", "result": "dissolve in acetone"}, {"measurement": "ED50", "setting": "B. cinerea strain 12", "result": "68 (61-85) ng ml^−1"}, {"measurement": "ED50", "setting": "[2]", "result": "59.0 (51-65) ng ml^−1"}, {"measurement": "inhibition at 5 ng/mL", "setting": "Botrytis cinerea; Botrytis cinerea, Table 5, endochitinase from G. virens strain 41 at 25 μg ml^−1, with flusilazole 5 ng ml^−1, miconazole 0.5 μg ml^−1 or none (enzyme alone)", "result": 89, "unit": "%"}, {"measurement": "inhibition at 0.5 µg/mL", "setting": "Botrytis cinerea; Table 4, endochitinase from T. harzianum strain P1 at 75 μg ml^−1, with flusilazole 5 ng ml^−1, miconazole 0.5 μg ml^−1 or none (enzyme alone)", "result": 100, "unit": "%"}, {"measurement": "% inhibition", "setting": "Botrytis cinerea; Table 4", "result": 18, "unit": "%"}, {"measurement": "% inhibition", "setting": "Botrytis cinerea; Table 5", "result": 18, "unit": "%"}, {"measurement": "inhibition at 0.5 µg/mL", "setting": "Botrytis cinerea; Table 6, chitobiosidase from T. harzianum strain P1 at 75 μg ml^−1, with flusilazole 5 ng ml^−1, miconazole 0.5 μg ml^−1 or none (enzyme alone)", "result": 100, "unit": "%"}, {"measurement": "% inhibition", "setting": "Botrytis cinerea; Table 6", "result": 18, "unit": "%"}, {"measurement": "% inhibition", "setting": "Botrytis cinerea; Table 7", "result": 18, "unit": "%"}, {"measurement": "inhibition at 0.5 µg/mL", "setting": "Botrytis cinerea; Table 7, glucan 1,3-β-glucosidase from T. harzianum strain P1 at 100 μg ml^−1, with flusilazole 5 ng ml^−1, miconazole 0.5 μg ml^−1 or none (enzyme alone)", "result": 100, "unit": "%"}, {"measurement": "ED50 of fungicide (dose effective for 50% inhibition)", "setting": "Botrytis cinerea; no endochitinase (0 μg ml^−1)", "result": 60, "unit": "ng/mL"}, {"measurement": "ED50 of fungicide (dose effective for 50% inhibition)", "setting": "Botrytis cinerea; with endochitinase from T. harzianum strain P1 at 10 μg ml^−1", "result": 0.7, "unit": "ng/mL"}, {"measurement": "ED50 of fungicide (dose effective for 50% inhibition)", "setting": "Botrytis cinerea; with endochitinase from T. harzianum strain P1 at 25 μg ml^−1", "result": 0.3, "unit": "ng/mL"}, {"measurement": "ED50 of fungicide", "setting": "Botrytis cinerea; Table 10, no chitobiosidase (0 μg ml^−1)", "result": 60, "unit": "ng/mL"}, {"measurement": "ED50 of fungicide", "setting": "Botrytis cinerea; Table 10, with chitobiosidase from T. harzianum strain P1 at 25 μg ml^−1", "result": 1, "unit": "ng/mL"}, {"measurement": "ED50 of fungicide", "setting": "Botrytis cinerea; Table 10, with chitobiosidase from T. harzianum strain P1 at 50 μg ml^−1", "result": 0.4, "unit": "ng/mL"}, {"measurement": "ED50 of fungicide", "setting": "Botrytis cinerea; Table 10, with chitobiosidase from T. harzianum strain P1 at 75 μg ml^−1", "result": 0.35, "unit": "ng/mL"}, {"measurement": "ED50 of fungicide", "setting": "Botrytis cinerea; Table 10, with chitobiosidase from T. harzianum strain P1 at 100 μg ml^−1", "result": 0.3, "unit": "ng/mL"}, {"measurement": "ED50 of fungicide", "setting": "Botrytis cinerea; Table 11, no glucosidase (0 μg ml^−1)", "result": 60, "unit": "ng/mL"}, {"measurement": "ED50 of fungicide", "setting": "Botrytis cinerea; Table 11, with glucan 1,3-β-glucosidase from T. harzianum strain P1 at 25 μg ml^−1", "result": 3.3, "unit": "ng/mL"}, {"measurement": "ED50 of fungicide", "setting": "Botrytis cinerea; Table 11, with glucan 1,3-β-glucosidase from T. harzianum strain P1 at 50 μg ml^−1", "result": 1, "unit": "ng/mL"}, {"measurement": "ED50 of fungicide", "setting": "Botrytis cinerea; Table 11, with glucan 1,3-β-glucosidase from T. harzianum strain P1 at 75 μg ml^−1", "result": 0.17, "unit": "ng/mL"}, {"measurement": "ED50 of fungicide", "setting": "Botrytis cinerea; Table 12, no endochitinase (0 μg ml^−1)", "result": 60, "unit": "ng/mL"}, {"measurement": "ED50 of fungicide", "setting": "Botrytis cinerea; Table 12, with endochitinase from G. virens strain 41 at 25 μg ml^−1", "result": 2.5, "unit": "ng/mL"}, {"measurement": "ED50 of fungicide", "setting": "Botrytis cinerea; Table 12, with endochitinase from G. virens strain 41 at 50 μg ml^−1", "result": 1, "unit": "ng/mL"}, {"measurement": "ED50 of fungicide", "setting": "Botrytis cinerea; Table 12, with endochitinase from G. virens strain 41 at 75 μg ml^−1", "result": 4.5, "unit": "ng/mL"}, {"measurement": "ED50 of fungicide", "setting": "Botrytis cinerea; Table 12, with endochitinase from G. virens strain 41 at 100 μg ml^−1", "result": 0.22, "unit": "ng/mL"}, {"measurement": "Ee, expected effect from an additive response according to Limpel's formula, percent inhibition", "setting": "Botrytis cinerea; with Chitob. (P1) 25 μg ml^−1", "result": 27, "unit": "%"}, {"measurement": "Io, percent inhibition observed", "setting": "Botrytis cinerea; with Endoc. (41) 25 pg ml^−1 (so in the source)", "result": 67, "unit": "%"}, {"measurement": "Ee, expected effect from an additive response according to Limpel's formula, percent inhibition", "setting": "Botrytis cinerea; with Endoc. (P1) 25 μg ml^−1", "result": 41, "unit": "%"}, {"measurement": "Ee, expected effect from an additive response according to Limpel's formula, percent inhibition", "setting": "Botrytis cinerea; with Glucan. (P1) 25 μg ml^−1", "result": 22.1, "unit": "%"}, {"measurement": "Io, percent inhibition observed", "setting": "Botrytis cinerea; with Glucan. (P1) 25 μg ml^−1", "result": 65, "unit": "%"}]}
